Test results: article PMC10177447, “4-[(5-Methyl-1H-pyrazol-3-yl)amino]-2H-phenyl-1-phthalazinone Inhibits MCPyV T Antigen Expression in Merkel Cell Carcinoma Independent of Aurora Kinase A” (Cancers, 2023)

Molecular target: GSK3b (Homo sapiens, UniProt P49841)
Experiment: commercial GSK3 kinase assay (Promega) with ADP-Glo luminescence readout, dose-response
Type: biochemical

GSK3b, sequence (P49841 whole entry): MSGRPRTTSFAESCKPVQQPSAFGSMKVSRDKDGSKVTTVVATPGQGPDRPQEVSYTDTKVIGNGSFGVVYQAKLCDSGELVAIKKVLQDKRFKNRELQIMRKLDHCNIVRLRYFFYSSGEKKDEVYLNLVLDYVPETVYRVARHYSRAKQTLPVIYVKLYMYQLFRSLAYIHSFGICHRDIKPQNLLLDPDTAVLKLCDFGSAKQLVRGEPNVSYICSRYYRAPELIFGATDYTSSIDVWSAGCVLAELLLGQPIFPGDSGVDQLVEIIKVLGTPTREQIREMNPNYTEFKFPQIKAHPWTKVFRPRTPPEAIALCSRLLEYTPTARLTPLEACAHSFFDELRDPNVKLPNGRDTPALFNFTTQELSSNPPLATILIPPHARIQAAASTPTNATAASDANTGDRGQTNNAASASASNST

IC50: 29 nM
Compound: Cc1cc(Nc2nn(-c3ccccc3)c(=O)c3ccccc23)n[nH]1 [PHT, 4-[(5-methyl-1H-pyrazol-3-yl)amino]-2H-phenyl-1-phthalazinone]
